Data: ChEMBL document CHEMBL1137052 (Bioorg Med Chem Lett, 2004)

Key:
[1] = target: T1, Polyunsaturated fatty acid 5-lipoxygenase (Homo sapiens, UniProt P09917); test: Inhibition of 5-lipoxygenase activity in human whole blood assay; format: tissue-based
T1 sequence (P09917 whole entry): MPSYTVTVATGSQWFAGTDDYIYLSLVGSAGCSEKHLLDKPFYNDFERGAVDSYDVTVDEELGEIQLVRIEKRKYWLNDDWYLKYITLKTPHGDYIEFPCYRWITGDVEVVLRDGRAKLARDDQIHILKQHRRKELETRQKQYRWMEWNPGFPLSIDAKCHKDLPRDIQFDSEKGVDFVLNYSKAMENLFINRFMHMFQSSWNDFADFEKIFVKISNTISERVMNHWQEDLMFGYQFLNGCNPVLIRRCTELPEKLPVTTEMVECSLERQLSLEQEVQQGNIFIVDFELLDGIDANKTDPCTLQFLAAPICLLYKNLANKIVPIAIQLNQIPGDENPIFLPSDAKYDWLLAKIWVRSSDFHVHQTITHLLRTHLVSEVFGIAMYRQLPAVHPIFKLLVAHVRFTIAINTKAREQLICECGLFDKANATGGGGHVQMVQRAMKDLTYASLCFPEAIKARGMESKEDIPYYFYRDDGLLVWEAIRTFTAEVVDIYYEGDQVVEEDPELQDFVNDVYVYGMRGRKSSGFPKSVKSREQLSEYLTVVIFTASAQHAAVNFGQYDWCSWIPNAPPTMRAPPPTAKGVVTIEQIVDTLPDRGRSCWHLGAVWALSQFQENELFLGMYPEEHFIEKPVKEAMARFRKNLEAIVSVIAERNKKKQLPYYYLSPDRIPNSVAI

[2] = Plasma concentration of compound in guinea pig after 3h of oral dose of 2 mg/kg; format: ADME, organism-based, Cavia porcellus; parameters: dose 2 mg/kg, route oral
[3] = Metabolic clearance in guinea pig liver microsomes; format: ADME, Cavia porcellus, Microsome; details: read-out: Clearance
[4] = system: Cavia porcellus; test: Percent inhibition of calcium ionophore-induced LTB4 production in guinea pig after 3h of oral dose of 2 mg/kg
[5] = Metabolic clearance in human liver microsomes; format: ADME, Microsome; details: read-out: Clearance
[6] = Metabolic clearance in rat liver microsomes; format: ADME, Microsome; details: read-out: Clearance
[7] = Maximum plasma concentration in rat upon oral/iv administration at 2 mg/kg; format: ADME, organism-based; parameters: dose 2 mg/kg
[8] = Area under plasma concentration-time curve in rat upon oral/iv administration at 2 mg/kg; format: ADME, organism-based; parameters: dose 2 mg/kg; details: in vivo
[9] = system: Cavia porcellus; test: Percent inhibition of histamine-induced bronchoconstriction in guinea pig after 3h of oral dose of 2 mg/kg
[10] = Bioavailability in rat (dose 2 mg/kg p.o./i.v.); format: ADME, organism-based; details: in vivo, po
[11] = read-out: Concentration, in vivo

Question: Which IC50 [1] does the source give for NC(=O)N(O)CCC#Cc1ccc(OCCCN2CCN(C(c3ccc(F)cc3)c3ccc(F)cc3)CC2)cc1 here?
Answer: Its IC50 is 90 nM.

Question: With NC(=O)N(O)CCC#Cc1ccc(OCCN2CCC(=C3c4ccc(Cl)cc4CCc4cccnc43)CC2)cc1 as the compound, how does the concentration ([2]; in vivo) read?
Answer: The concentration was 72 ng/mL.

Question: And the concentration [2, 11]?
Answer: The concentration was 129 nM.

Question: What about the microsomal CLint [3] of the same compound?
Answer: Its microsomal CLint is 105 µL/min/mg.

Question: And the inhibition in vivo at 2 mg/kg [4]?
Answer: The inhibition in vivo at 2 mg/kg was 84%.

Question: What about the IC50 [1] of the same compound?
Answer: Its IC50 is 185 nM.

Question: And the microsomal CLint [5]?
Answer: The microsomal CLint was 15 µL/min/mg.

Question: What about the microsomal CLint [6] of the same compound?
Answer: The microsomal CLint was 101 µL/min/mg.

Question: What about the Cmax [7] of the same compound?
Answer: The Cmax was 30 ng/mL.

Question: What about the AUC [8] of the same compound?
Answer: Its AUC is 83 ng·h/mL.

Question: And the inhibition in vivo at 2 mg/kg [9]?
Answer: Its inhibition in vivo at 2 mg/kg is 65%.

Question: What about the bioavailability [10] of the same compound?
Answer: Its bioavailability is 8%.

Question: With NC(=O)N(O)CCC#Cc1ccc(OCCCCN2CCN([C@H](c3ccccc3)c3ccc(Cl)cc3)CC2)cc1 as the compound, how does the IC50 [1] read?
Answer: Its IC50 is 68 nM.

Question: What does the source list for NC(=O)N(O)CCC#Cc1ccc(OCCCN2CCN([C@H](c3ccccc3)c3ccc(Cl)cc3)CC2)cc1?
Answer: microsomal CLint [3]: 99 µL/min/mg; IC50 [1]: 96 nM; microsomal CLint [6]: 108 µL/min/mg

Question: For NC(=O)N(O)CCC#Cc1ccc(OCCN2CCN(C(c3ccc(F)cc3)c3ccc(F)cc3)CC2)cc1, which IC50 [1] is on record?
Answer: Its IC50 is 48 nM.

Question: With NC(=O)N(O)CCC#Cc1ccc(OCCCN2CCC(=C3c4ccc(Cl)cc4CCc4cccnc43)CC2)cc1 as the compound, how does the IC50 [1] read?
Answer: Its IC50 is 194 nM.

Question: With NC(=O)N(O)CCC#Cc1ccc(OCCCCN2CCC(=C3c4ccc(Cl)cc4CCc4cccnc43)CC2)cc1 as the compound, how does the IC50 [1] read?
Answer: The IC50 was 57 nM.

Question: What does the source list for NC(=O)N(O)CCC#Cc1ccc(OCCN2CCN([C@H](c3ccccc3)c3ccc(Cl)cc3)CC2)cc1?
Answer: concentration ([2]; in vivo): 187 ng/mL; concentration [2, 11]: 350 nM; microsomal CLint [3]: 19 µL/min/mg; inhibition in vivo at 2 mg/kg [4]: 41%; IC50 [1]: 213 nM; microsomal CLint [5]: 2 µL/min/mg; microsomal CLint [6]: 48 µL/min/mg; Cmax [7]: 66 ng/mL; AUC [8]: 300 ng·h/mL; inhibition in vivo at 2 mg/kg [9]: 62%; bioavailability [10]: 23%

Question: With NC(=O)N(O)CCC#Cc1ccc(OCCCCN2CCN(C(c3ccc(F)cc3)c3ccc(F)cc3)CC2)cc1 as the compound, how does the microsomal CLint [3] read?
Answer: Its microsomal CLint is 111 µL/min/mg.

Question: And the IC50 [1]?
Answer: Its IC50 is 89 nM.

Question: And the microsomal CLint [5]?
Answer: Its microsomal CLint is 13 µL/min/mg.

Question: What about the microsomal CLint [6] of the same compound?
Answer: The microsomal CLint was 138 µL/min/mg.
